Data from the kinase profiling compilation of Christmann-Franck et al. (2016).

Key:
Experiment in all cases: KINOMEscan competition binding
Details in all cases: compound 10.0 µM
CSNK1G2 (human) = CSNK1G2 (human) (UniProt P78368)
PRKD2 (human) = PRKD2 (human) (UniProt Q9BZL6)
NLK (human) = NLK (human) (UniProt Q9UBE8)
PAK6 (human) = PAK6 (human) (UniProt Q9NQU5)
PTK6 (human) = PTK6 (human) (UniProt Q13882)
CDK14 (human) = CDK14 (human) (UniProt O94921)
TGFBR2 (human) = TGFBR2 (human) (UniProt P37173)
MAP2K2 (human) = MAP2K2 (human) (UniProt P36507)
MAP2K3 (human) = MAP2K3 (human) (UniProt P46734)
FER (human) = FER (human) (UniProt P16591)
MELK (human) = MELK (human) (UniProt Q14680)
NIM1 (human) = NIM1 (human) (UniProt Q8IY84)
[1] = target: JAK1 JH1 catalytic (human) (UniProt P23458)
CSF1R (human) = CSF1R (human) (UniProt P07333)
EPHA8 (human) = EPHA8 (human) (UniProt P29322)
RIOK1 (human) = RIOK1 (human) (UniProt Q9BRS2)
PKN1 (human) = PKN1 (human) (UniProt Q16512)
CSNK1E (human) = CSNK1E (human) (UniProt P49674)
FGFR1 (human) = FGFR1 (human) (UniProt P11362)
PI4KB (human) = PI4KB (human) (UniProt Q9UBF8)
MAPK1 (human) = MAPK1 (human) (UniProt P28482)
MAPK9 (human) = MAPK9 (human) (UniProt P45984)
IKBKB (human) = IKBKB (human) (UniProt O14920)
BLK (human) = BLK (human) (UniProt P51451)
ERBB4 (human) = ERBB4 (human) (UniProt Q15303)
PIM3 (human) = PIM3 (human) (UniProt Q86V86)
[2] = target: JAK3 JH1 catalytic (human) (UniProt P52333)
DCLK2 (human) = DCLK2 (human) (UniProt Q8N568)
STK38L (human) = STK38L (human) (UniProt Q9Y2H1)
MLTK (human) = MLTK (human) (UniProt Q9NYL2)
STK11 (human) = STK11 (human) (UniProt Q15831)
MAP3K2 (human) = MAP3K2 (human) (UniProt Q9Y2U5)
HIPK2 (human) = HIPK2 (human) (UniProt Q9H2X6)
MST1R (human) = MST1R (human) (UniProt Q04912)
MAPKAPK5 (human) = MAPKAPK5 (human) (UniProt Q8IW41)
RIPK2 (human) = RIPK2 (human) (UniProt O43353)
PIP4K2B (human) = PIP4K2B (human) (UniProt P78356)
GAK (human) = GAK (human) (UniProt O14976)
CHUK (human) = CHUK (human) (UniProt O15111)
CSNK1G3 (human) = CSNK1G3 (human) (UniProt Q9Y6M4)

Chain of CSF1R (human) (P07333 whole entry, looked up): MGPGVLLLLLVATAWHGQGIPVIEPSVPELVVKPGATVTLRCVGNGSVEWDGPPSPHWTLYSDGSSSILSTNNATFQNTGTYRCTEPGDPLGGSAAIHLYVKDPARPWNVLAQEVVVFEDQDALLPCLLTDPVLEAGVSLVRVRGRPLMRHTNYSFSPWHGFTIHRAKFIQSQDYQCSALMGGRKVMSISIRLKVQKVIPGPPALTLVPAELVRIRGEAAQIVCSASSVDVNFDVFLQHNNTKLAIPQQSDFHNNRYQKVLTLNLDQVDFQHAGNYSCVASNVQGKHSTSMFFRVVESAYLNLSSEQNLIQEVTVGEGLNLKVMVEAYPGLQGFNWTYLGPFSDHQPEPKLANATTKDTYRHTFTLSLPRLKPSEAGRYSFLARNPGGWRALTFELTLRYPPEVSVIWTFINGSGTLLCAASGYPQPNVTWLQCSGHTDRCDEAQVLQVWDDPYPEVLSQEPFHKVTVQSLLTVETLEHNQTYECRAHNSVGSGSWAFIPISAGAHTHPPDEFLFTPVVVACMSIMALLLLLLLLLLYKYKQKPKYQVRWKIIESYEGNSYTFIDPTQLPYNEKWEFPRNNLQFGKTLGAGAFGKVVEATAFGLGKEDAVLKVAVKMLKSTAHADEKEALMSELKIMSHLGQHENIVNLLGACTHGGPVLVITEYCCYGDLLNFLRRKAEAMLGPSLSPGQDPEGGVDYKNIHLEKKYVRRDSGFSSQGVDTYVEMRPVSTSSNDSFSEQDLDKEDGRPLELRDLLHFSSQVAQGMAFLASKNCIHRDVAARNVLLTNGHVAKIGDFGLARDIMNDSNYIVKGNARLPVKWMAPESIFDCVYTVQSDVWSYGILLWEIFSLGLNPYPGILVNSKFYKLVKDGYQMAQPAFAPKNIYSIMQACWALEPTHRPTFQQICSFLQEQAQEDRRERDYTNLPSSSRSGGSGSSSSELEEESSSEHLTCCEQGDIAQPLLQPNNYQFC
Chain of GAK (human) (O14976 whole entry, looked up): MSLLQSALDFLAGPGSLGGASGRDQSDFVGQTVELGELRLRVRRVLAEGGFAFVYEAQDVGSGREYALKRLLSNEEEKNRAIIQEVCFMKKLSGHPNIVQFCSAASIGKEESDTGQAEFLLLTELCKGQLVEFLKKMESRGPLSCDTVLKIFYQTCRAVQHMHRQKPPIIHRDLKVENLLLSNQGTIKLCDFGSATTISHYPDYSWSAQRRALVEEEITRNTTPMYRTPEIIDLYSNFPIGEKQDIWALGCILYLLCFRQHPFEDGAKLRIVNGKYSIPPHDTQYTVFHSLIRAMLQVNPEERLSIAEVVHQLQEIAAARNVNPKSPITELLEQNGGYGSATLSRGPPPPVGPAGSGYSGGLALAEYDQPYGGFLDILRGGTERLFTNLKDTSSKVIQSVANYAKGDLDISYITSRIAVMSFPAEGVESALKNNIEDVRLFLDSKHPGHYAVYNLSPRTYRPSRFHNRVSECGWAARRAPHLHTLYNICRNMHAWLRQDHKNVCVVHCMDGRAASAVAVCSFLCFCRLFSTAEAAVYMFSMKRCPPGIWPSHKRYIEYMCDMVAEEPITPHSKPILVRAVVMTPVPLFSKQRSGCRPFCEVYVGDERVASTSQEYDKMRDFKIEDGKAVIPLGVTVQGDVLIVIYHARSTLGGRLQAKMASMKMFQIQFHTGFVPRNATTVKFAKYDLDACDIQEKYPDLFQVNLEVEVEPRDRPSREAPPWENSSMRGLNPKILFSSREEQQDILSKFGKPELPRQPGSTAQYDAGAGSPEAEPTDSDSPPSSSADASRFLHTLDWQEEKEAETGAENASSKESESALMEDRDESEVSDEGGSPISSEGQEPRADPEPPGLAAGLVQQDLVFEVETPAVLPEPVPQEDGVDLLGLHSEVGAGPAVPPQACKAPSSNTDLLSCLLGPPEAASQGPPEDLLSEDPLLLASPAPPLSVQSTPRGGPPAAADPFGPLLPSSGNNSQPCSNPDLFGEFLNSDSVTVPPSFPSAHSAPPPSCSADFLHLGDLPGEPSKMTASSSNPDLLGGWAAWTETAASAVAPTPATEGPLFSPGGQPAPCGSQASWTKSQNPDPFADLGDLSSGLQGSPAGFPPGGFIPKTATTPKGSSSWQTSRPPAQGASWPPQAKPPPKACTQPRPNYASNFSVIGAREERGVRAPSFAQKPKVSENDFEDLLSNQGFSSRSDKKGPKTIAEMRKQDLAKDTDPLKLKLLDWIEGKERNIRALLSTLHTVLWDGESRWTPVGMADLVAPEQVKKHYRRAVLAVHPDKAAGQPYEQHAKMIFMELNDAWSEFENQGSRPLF
Chain of MELK (human) (Q14680 whole entry, looked up): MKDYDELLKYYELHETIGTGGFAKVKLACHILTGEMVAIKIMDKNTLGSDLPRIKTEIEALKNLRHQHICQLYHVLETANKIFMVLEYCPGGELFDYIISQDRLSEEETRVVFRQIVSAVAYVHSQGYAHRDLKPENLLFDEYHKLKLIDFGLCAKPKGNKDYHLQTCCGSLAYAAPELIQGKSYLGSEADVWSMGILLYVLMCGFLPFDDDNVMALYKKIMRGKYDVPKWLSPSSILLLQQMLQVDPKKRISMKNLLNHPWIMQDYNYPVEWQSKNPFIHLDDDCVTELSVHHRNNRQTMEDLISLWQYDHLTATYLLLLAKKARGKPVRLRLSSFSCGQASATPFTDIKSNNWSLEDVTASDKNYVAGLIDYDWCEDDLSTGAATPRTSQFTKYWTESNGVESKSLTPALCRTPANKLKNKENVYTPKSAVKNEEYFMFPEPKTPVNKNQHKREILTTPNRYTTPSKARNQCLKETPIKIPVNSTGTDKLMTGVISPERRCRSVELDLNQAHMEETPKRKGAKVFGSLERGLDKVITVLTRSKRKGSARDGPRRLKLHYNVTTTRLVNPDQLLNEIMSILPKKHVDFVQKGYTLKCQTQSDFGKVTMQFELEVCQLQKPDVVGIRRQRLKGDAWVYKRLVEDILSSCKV
Chain of JAK3 JH1 catalytic (human) (P52333 whole entry, looked up): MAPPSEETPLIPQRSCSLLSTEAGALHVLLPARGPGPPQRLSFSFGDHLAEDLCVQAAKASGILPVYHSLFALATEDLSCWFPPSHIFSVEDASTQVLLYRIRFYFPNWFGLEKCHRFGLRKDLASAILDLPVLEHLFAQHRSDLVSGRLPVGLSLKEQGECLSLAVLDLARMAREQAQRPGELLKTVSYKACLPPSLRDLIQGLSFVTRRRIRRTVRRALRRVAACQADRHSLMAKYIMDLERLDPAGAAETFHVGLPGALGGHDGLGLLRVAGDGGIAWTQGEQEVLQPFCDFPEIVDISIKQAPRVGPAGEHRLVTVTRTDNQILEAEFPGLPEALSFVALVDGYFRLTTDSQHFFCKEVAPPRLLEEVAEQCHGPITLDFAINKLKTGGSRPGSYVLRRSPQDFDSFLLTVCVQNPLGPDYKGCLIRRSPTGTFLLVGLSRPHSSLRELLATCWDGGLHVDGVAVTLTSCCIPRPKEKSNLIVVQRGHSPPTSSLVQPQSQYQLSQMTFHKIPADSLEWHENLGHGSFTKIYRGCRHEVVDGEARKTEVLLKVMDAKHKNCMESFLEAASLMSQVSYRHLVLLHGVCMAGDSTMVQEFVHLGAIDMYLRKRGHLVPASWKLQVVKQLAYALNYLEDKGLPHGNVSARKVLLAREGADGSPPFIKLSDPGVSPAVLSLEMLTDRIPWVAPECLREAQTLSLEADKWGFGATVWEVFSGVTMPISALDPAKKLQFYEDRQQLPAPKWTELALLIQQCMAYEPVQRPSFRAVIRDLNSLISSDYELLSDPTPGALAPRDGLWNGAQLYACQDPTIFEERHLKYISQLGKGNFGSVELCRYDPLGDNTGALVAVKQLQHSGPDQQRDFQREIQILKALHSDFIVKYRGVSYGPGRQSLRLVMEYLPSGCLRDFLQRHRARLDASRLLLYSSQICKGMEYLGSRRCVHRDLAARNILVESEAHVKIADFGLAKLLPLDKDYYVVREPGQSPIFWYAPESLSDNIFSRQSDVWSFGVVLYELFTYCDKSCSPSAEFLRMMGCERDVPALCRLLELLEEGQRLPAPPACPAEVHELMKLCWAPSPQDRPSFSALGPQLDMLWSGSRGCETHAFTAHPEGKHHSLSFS
Chain of FER (human) (P16591 whole entry, looked up): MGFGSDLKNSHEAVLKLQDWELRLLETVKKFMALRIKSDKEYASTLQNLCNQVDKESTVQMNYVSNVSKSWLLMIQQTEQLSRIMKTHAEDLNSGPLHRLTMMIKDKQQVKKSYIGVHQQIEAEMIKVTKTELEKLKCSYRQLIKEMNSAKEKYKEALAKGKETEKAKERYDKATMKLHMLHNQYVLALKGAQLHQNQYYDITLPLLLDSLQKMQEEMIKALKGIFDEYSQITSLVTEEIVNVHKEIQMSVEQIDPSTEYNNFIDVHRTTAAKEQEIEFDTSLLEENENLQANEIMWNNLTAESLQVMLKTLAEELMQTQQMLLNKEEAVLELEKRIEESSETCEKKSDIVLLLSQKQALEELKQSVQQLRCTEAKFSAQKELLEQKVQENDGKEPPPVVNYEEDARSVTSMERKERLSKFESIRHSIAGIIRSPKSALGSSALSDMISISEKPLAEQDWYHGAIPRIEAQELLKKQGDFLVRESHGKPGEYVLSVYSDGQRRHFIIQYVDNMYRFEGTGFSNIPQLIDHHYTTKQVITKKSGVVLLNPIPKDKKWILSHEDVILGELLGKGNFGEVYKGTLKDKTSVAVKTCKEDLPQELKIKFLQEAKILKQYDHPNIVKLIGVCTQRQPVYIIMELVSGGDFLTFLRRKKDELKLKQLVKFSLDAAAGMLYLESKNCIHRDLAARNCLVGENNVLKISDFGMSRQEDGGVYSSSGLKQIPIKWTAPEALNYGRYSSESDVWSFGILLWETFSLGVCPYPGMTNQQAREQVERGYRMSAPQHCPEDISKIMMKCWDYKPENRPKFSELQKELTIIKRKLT

Q: With `CNC(=O)Nc1ccc(-c2nc(N3CC4CCC(C3)O4)c3cnn(C4CCC5(CC4)OCCO5)c3n2)cc1` as the compound, how does the kinase still bound, per cent of control (CSNK1G2 (human)) read?
A: The kinase still bound, per cent of control was 95%.

Q: What about the kinase still bound, per cent of control (PRKD2 (human)) of the same compound?
A: Its kinase still bound, per cent of control is 100%.

Q: What about the kinase still bound, per cent of control (NLK (human)) of the same compound?
A: The kinase still bound, per cent of control was 85%.

Q: And the kinase still bound, per cent of control (PAK6 (human))?
A: Its kinase still bound, per cent of control is 100%.

Q: And the kinase still bound, per cent of control (PTK6 (human))?
A: Its kinase still bound, per cent of control is 55%.

Q: What about the kinase still bound, per cent of control (CDK14 (human)) of the same compound?
A: Its kinase still bound, per cent of control is 94%.

Q: And the kinase still bound, per cent of control (TGFBR2 (human))?
A: Its kinase still bound, per cent of control is 100%.

Q: What about the kinase still bound, per cent of control (MAP2K2 (human)) of the same compound?
A: The kinase still bound, per cent of control was 100%.

Q: And the kinase still bound, per cent of control (MAP2K3 (human))?
A: Its kinase still bound, per cent of control is 89%.

Q: What about the kinase still bound, per cent of control (FER (human)) of the same compound?
A: The kinase still bound, per cent of control was 100%.

Q: What about the kinase still bound, per cent of control (MELK (human)) of the same compound?
A: The kinase still bound, per cent of control was 92%.

Q: And the kinase still bound, per cent of control (NIM1 (human))?
A: Its kinase still bound, per cent of control is 100%.

Q: What about the kinase still bound, per cent of control [1] of the same compound?
A: Its kinase still bound, per cent of control is 82%.

Q: What about the kinase still bound, per cent of control (CSF1R (human)) of the same compound?
A: The kinase still bound, per cent of control was 100%.

Q: What about the kinase still bound, per cent of control (EPHA8 (human)) of the same compound?
A: Its kinase still bound, per cent of control is 81%.

Q: What about the kinase still bound, per cent of control (RIOK1 (human)) of the same compound?
A: The kinase still bound, per cent of control was 91%.

Q: What about the kinase still bound, per cent of control (PKN1 (human)) of the same compound?
A: The kinase still bound, per cent of control was 100%.

Q: And the kinase still bound, per cent of control (CSNK1E (human))?
A: The kinase still bound, per cent of control was 39%.

Q: And the kinase still bound, per cent of control (FGFR1 (human))?
A: The kinase still bound, per cent of control was 100%.

Q: And the kinase still bound, per cent of control (PI4KB (human))?
A: The kinase still bound, per cent of control was 100%.

Q: And the kinase still bound, per cent of control (MAPK1 (human))?
A: Its kinase still bound, per cent of control is 87%.

Q: And the kinase still bound, per cent of control (MAPK9 (human))?
A: Its kinase still bound, per cent of control is 85%.

Q: And the kinase still bound, per cent of control (IKBKB (human))?
A: Its kinase still bound, per cent of control is 79%.

Q: What about the kinase still bound, per cent of control (BLK (human)) of the same compound?
A: The kinase still bound, per cent of control was 96%.

Q: And the kinase still bound, per cent of control (ERBB4 (human))?
A: The kinase still bound, per cent of control was 100%.

Q: What about the kinase still bound, per cent of control (PIM3 (human)) of the same compound?
A: Its kinase still bound, per cent of control is 100%.

Q: What about the kinase still bound, per cent of control [2] of the same compound?
A: The kinase still bound, per cent of control was 90%.

Q: And the kinase still bound, per cent of control (DCLK2 (human))?
A: Its kinase still bound, per cent of control is 97%.

Q: And the kinase still bound, per cent of control (STK38L (human))?
A: The kinase still bound, per cent of control was 100%.

Q: And the kinase still bound, per cent of control (MLTK (human))?
A: Its kinase still bound, per cent of control is 77%.

Q: And the kinase still bound, per cent of control (STK11 (human))?
A: Its kinase still bound, per cent of control is 80%.

Q: And the kinase still bound, per cent of control (MAP3K2 (human))?
A: The kinase still bound, per cent of control was 95%.

Q: What about the kinase still bound, per cent of control (HIPK2 (human)) of the same compound?
A: The kinase still bound, per cent of control was 100%.

Q: What about the kinase still bound, per cent of control (MST1R (human)) of the same compound?
A: The kinase still bound, per cent of control was 100%.

Q: And the kinase still bound, per cent of control (MAPKAPK5 (human))?
A: The kinase still bound, per cent of control was 100%.

Q: What about the kinase still bound, per cent of control (RIPK2 (human)) of the same compound?
A: The kinase still bound, per cent of control was 71%.

Q: What about the kinase still bound, per cent of control (PIP4K2B (human)) of the same compound?
A: Its kinase still bound, per cent of control is 100%.

Q: And the kinase still bound, per cent of control (GAK (human))?
A: Its kinase still bound, per cent of control is 75%.

Q: What about the kinase still bound, per cent of control (CHUK (human)) of the same compound?
A: Its kinase still bound, per cent of control is 100%.

Q: And the kinase still bound, per cent of control (CSNK1G3 (human))?
A: The kinase still bound, per cent of control was 48%.

Q: `N#C/C(=C1/Nc2ccccc2S1)c1ccnc(NCCc2cccnc2)n1` was tested. Which kinase still bound, per cent of control (CSNK1G2 (human)) did it give?
A: Its kinase still bound, per cent of control is 77%.

Q: What about the kinase still bound, per cent of control (PRKD2 (human)) of the same compound?
A: Its kinase still bound, per cent of control is 100%.

Q: What about the kinase still bound, per cent of control (NLK (human)) of the same compound?
A: The kinase still bound, per cent of control was 100%.

Q: And the kinase still bound, per cent of control (PAK6 (human))?
A: Its kinase still bound, per cent of control is 78%.

Q: What about the kinase still bound, per cent of control (PTK6 (human)) of the same compound?
A: Its kinase still bound, per cent of control is 59%.

Q: What about the kinase still bound, per cent of control (CDK14 (human)) of the same compound?
A: Its kinase still bound, per cent of control is 100%.

Q: What about the kinase still bound, per cent of control (TGFBR2 (human)) of the same compound?
A: The kinase still bound, per cent of control was 100%.

Q: What about the kinase still bound, per cent of control (MAP2K2 (human)) of the same compound?
A: The kinase still bound, per cent of control was 17%.

Q: What about the kinase still bound, per cent of control (MAP2K3 (human)) of the same compound?
A: The kinase still bound, per cent of control was 33%.

Q: And the kinase still bound, per cent of control (FER (human))?
A: The kinase still bound, per cent of control was 100%.

Q: What about the kinase still bound, per cent of control (MELK (human)) of the same compound?
A: Its kinase still bound, per cent of control is 100%.

Q: What about the kinase still bound, per cent of control (NIM1 (human)) of the same compound?
A: Its kinase still bound, per cent of control is 100%.

Q: And the kinase still bound, per cent of control [1]?
A: Its kinase still bound, per cent of control is 100%.

Q: What about the kinase still bound, per cent of control (CSF1R (human)) of the same compound?
A: Its kinase still bound, per cent of control is 98%.

Q: What about the kinase still bound, per cent of control (EPHA8 (human)) of the same compound?
A: The kinase still bound, per cent of control was 100%.

Q: What about the kinase still bound, per cent of control (RIOK1 (human)) of the same compound?
A: The kinase still bound, per cent of control was 30%.

Q: And the kinase still bound, per cent of control (PKN1 (human))?
A: The kinase still bound, per cent of control was 95%.

Q: What about the kinase still bound, per cent of control (CSNK1E (human)) of the same compound?
A: The kinase still bound, per cent of control was 60%.

Q: What about the kinase still bound, per cent of control (FGFR1 (human)) of the same compound?
A: Its kinase still bound, per cent of control is 98%.

Q: What about the kinase still bound, per cent of control (PI4KB (human)) of the same compound?
A: Its kinase still bound, per cent of control is 20%.

Q: And the kinase still bound, per cent of control (MAPK1 (human))?
A: Its kinase still bound, per cent of control is 84%.

Q: What about the kinase still bound, per cent of control (MAPK9 (human)) of the same compound?
A: Its kinase still bound, per cent of control is 0.25%.

Q: And the kinase still bound, per cent of control (IKBKB (human))?
A: The kinase still bound, per cent of control was 68%.

Q: What about the kinase still bound, per cent of control (BLK (human)) of the same compound?
A: The kinase still bound, per cent of control was 100%.

Q: And the kinase still bound, per cent of control (ERBB4 (human))?
A: The kinase still bound, per cent of control was 63%.

Q: And the kinase still bound, per cent of control (PIM3 (human))?
A: Its kinase still bound, per cent of control is 2.3%.

Q: What about the kinase still bound, per cent of control [2] of the same compound?
A: Its kinase still bound, per cent of control is 10%.

Q: And the kinase still bound, per cent of control (DCLK2 (human))?
A: Its kinase still bound, per cent of control is 100%.

Q: And the kinase still bound, per cent of control (STK38L (human))?
A: The kinase still bound, per cent of control was 100%.

Q: And the kinase still bound, per cent of control (MLTK (human))?
A: Its kinase still bound, per cent of control is 97%.

Q: What about the kinase still bound, per cent of control (STK11 (human)) of the same compound?
A: Its kinase still bound, per cent of control is 77%.

Q: What about the kinase still bound, per cent of control (MAP3K2 (human)) of the same compound?
A: The kinase still bound, per cent of control was 100%.

Q: And the kinase still bound, per cent of control (HIPK2 (human))?
A: Its kinase still bound, per cent of control is 1.4%.

Q: What about the kinase still bound, per cent of control (MST1R (human)) of the same compound?
A: The kinase still bound, per cent of control was 100%.

Q: What about the kinase still bound, per cent of control (MAPKAPK5 (human)) of the same compound?
A: Its kinase still bound, per cent of control is 100%.

Q: And the kinase still bound, per cent of control (RIPK2 (human))?
A: The kinase still bound, per cent of control was 81%.

Q: And the kinase still bound, per cent of control (PIP4K2B (human))?
A: Its kinase still bound, per cent of control is 26%.

Q: And the kinase still bound, per cent of control (GAK (human))?
A: The kinase still bound, per cent of control was 4.6%.

Q: What about the kinase still bound, per cent of control (CHUK (human)) of the same compound?
A: Its kinase still bound, per cent of control is 42%.

Q: What about the kinase still bound, per cent of control (CSNK1G3 (human)) of the same compound?
A: Its kinase still bound, per cent of control is 100%.
